Numbers after ± are expanded uncertainties.
Assays:
[1] = xn = mol fraction of the nth substance listed; settings: 102 kPa, Liquid, Vibrating tube method
[2] = refractive index (Na D-line) (dimensionless); xn = mol fraction of the nth substance listed; settings: 102 kPa, Liquid, Standard Abbe refractometry

C[Si]1(CCC(F)(F)F)O[Si](C)(CCC(F)(F)F)O[Si](C)(CCC(F)(F)F)O1 (stereo not given) + CCc1ccccc1
Settings | mass density, 308.15 K [kg/m3] | mass density, 313.15 K [kg/m3] | mass density, 318.15 K [kg/m3] | mass density, 323.15 K [kg/m3] | refractive index, 308.15 K | refractive index, 313.15 K | refractive index, 318.15 K | refractive index, 323.15 K
[1], x1 = 0.05 | 905.01 ± 1 | 900.4 ± 1 | 895.69 ± 1 | 890.85 ± 1 | – | – | – | –
[1], x1 = 0.1 | 947.97 ± 1 | 943.16 ± 1 | 938.39 ± 1 | 933.5 ± 1 | – | – | – | –
[1], x1 = 0.15 | 984.47 ± 1 | 979.55 ± 1 | 974.46 ± 1 | 969.52 ± 1 | – | – | – | –
[1], x1 = 0.1967 | 1013.95 ± 1 | 1008.92 ± 1 | 1003.57 ± 1 | 998.43 ± 1 | – | – | – | –
[1], x1 = 0.25 | 1043.11 ± 1 | 1037.94 ± 1 | 1032.55 ± 1 | 1027.19 ± 1 | – | – | – | –
[1], x1 = 0.2998 | 1066.87 ± 1 | 1061.66 ± 1 | 1056.21 ± 1 | 1050.74 ± 1 | – | – | – | –
[1], x1 = 0.35 | 1088.17 ± 1 | 1082.82 ± 1 | 1077.22 ± 1 | 1071.74 ± 1 | – | – | – | –
[1], x1 = 0.377 | 1098.7 ± 1 | 1093.23 ± 1 | 1087.75 ± 1 | 1082.06 ± 1 | – | – | – | –
[1], x1 = 0.4437 | 1121.97 ± 1 | 1116.36 ± 1 | 1110.93 ± 1 | 1104.98 ± 1 | – | – | – | –
[1], x1 = 0.5001 | 1139.32 ± 1 | 1133.58 ± 1 | 1127.97 ± 1 | 1121.88 ± 1 | – | – | – | –
[1], x1 = 0.5492 | 1152.93 ± 1 | 1147.02 ± 1 | 1141.17 ± 1 | 1135.21 ± 1 | – | – | – | –
[1], x1 = 0.5994 | 1165.69 ± 1 | 1159.63 ± 1 | 1153.7 ± 1 | 1147.6 ± 1 | – | – | – | –
[1], x1 = 0.6499 | 1177.11 ± 1 | 1171.2 ± 1 | 1165.14 ± 1 | 1158.94 ± 1 | – | – | – | –
[1], x1 = 0.6997 | 1187.73 ± 1 | 1181.59 ± 1 | 1175.49 ± 1 | 1169.24 ± 1 | – | – | – | –
[1], x1 = 0.7502 | 1197.39 ± 1 | 1191.42 ± 1 | 1185.03 ± 1 | 1178.51 ± 1 | – | – | – | –
[1], x1 = 0.7999 | 1206.57 ± 1 | 1200.31 ± 1 | 1193.75 ± 1 | 1187.44 ± 1 | – | – | – | –
[1], x1 = 0.8498 | 1214.84 ± 1 | 1208.54 ± 1 | 1202.09 ± 1 | 1195.57 ± 1 | – | – | – | –
[1], x1 = 0.9002 | 1222.62 ± 1 | 1216.17 ± 1 | 1209.67 ± 1 | 1203.21 ± 1 | – | – | – | –
[1], x1 = 0.9498 | 1229.79 ± 1 | 1223.31 ± 1 | 1216.79 ± 1 | 1210.24 ± 1 | – | – | – | –
[1], x1 = 1 | 1236.63 ± 1 | 1230.05 ± 1 | 1223.55 ± 1 | 1216.99 ± 1 | – | – | – | –
[2], x1 = 0.05 | – | – | – | – | 1.46829 ± 0.00035 | 1.46563 ± 0.00035 | 1.46295 ± 0.00035 | 1.46034 ± 0.00035
[2], x1 = 0.1 | – | – | – | – | 1.4527 ± 0.00035 | 1.45013 ± 0.00035 | 1.44755 ± 0.00035 | 1.445 ± 0.00035
[2], x1 = 0.15 | – | – | – | – | 1.43984 ± 0.00035 | 1.43731 ± 0.00035 | 1.43479 ± 0.00035 | 1.43233 ± 0.00035
[2], x1 = 0.1967 | – | – | – | – | 1.42972 ± 0.00035 | 1.42722 ± 0.00035 | 1.42478 ± 0.00035 | 1.42233 ± 0.00035
[2], x1 = 0.25 | – | – | – | – | 1.41987 ± 0.00035 | 1.41742 ± 0.00035 | 1.41503 ± 0.00035 | 1.41266 ± 0.00035
[2], x1 = 0.2998 | – | – | – | – | 1.41202 ± 0.00035 | 1.40962 ± 0.00035 | 1.40725 ± 0.00035 | 1.40493 ± 0.00035
[2], x1 = 0.35 | – | – | – | – | 1.40515 ± 0.00035 | 1.40278 ± 0.00035 | 1.40047 ± 0.00035 | 1.39817 ± 0.00035
[2], x1 = 0.377 | – | – | – | – | 1.40179 ± 0.00035 | 1.39946 ± 0.00035 | 1.39713 ± 0.00035 | 1.39485 ± 0.00035
[2], x1 = 0.4437 | – | – | – | – | 1.39447 ± 0.00035 | 1.39219 ± 0.00035 | 1.38991 ± 0.00035 | 1.38768 ± 0.00035
[2], x1 = 0.5001 | – | – | – | – | 1.38911 ± 0.00035 | 1.38686 ± 0.00035 | 1.38464 ± 0.00035 | 1.38243 ± 0.00035
[2], x1 = 0.5492 | – | – | – | – | 1.38496 ± 0.00035 | 1.38275 ± 0.00035 | 1.38053 ± 0.00035 | 1.37836 ± 0.00035
[2], x1 = 0.5994 | – | – | – | – | 1.3811 ± 0.00035 | 1.37891 ± 0.00035 | 1.37672 ± 0.00035 | 1.37458 ± 0.00035
[2], x1 = 0.6499 | – | – | – | – | 1.3776 ± 0.00035 | 1.37545 ± 0.00035 | 1.37326 ± 0.00035 | 1.37112 ± 0.00035
[2], x1 = 0.6997 | – | – | – | – | 1.37445 ± 0.00035 | 1.37234 ± 0.00035 | 1.37017 ± 0.00035 | 1.36807 ± 0.00035
[2], x1 = 0.7502 | – | – | – | – | 1.37152 ± 0.00035 | 1.36941 ± 0.00035 | 1.36729 ± 0.00035 | 1.36521 ± 0.00035
[2], x1 = 0.7999 | – | – | – | – | 1.36888 ± 0.00035 | 1.36677 ± 0.00035 | 1.36471 ± 0.00035 | 1.36262 ± 0.00035
[2], x1 = 0.8498 | – | – | – | – | 1.36642 ± 0.00035 | 1.36437 ± 0.00035 | 1.36228 ± 0.00035 | 1.36025 ± 0.00035
[2], x1 = 0.9002 | – | – | – | – | 1.36413 ± 0.00035 | 1.3621 ± 0.00035 | 1.36007 ± 0.00035 | 1.35801 ± 0.00035
[2], x1 = 0.9498 | – | – | – | – | 1.36206 ± 0.00035 | 1.36004 ± 0.00035 | 1.35799 ± 0.00035 | 1.356 ± 0.00035
[2], x1 = 1 | – | – | – | – | 1.36011 ± 0.00035 | 1.35808 ± 0.00035 | 1.35608 ± 0.00035 | 1.35407 ± 0.00035

Reference: the NIST ThermoML archive (doi:10.1016/j.jct.2015.12.025)
